In brackets after ≈: the same amount, converted by molar mass. Structures can show the parent of a compound that is named as a salt. Where two headings read alike, the source gives them in different places.
Experiments:
mouse spleen cell = experiment: cells; format: cell-based; settings: Mus musculus, 24 h, read-out: Interferon-inducing activity: Minimum effective concentration
IL-4 production = experiment: Inhibitory activity against Th2 cytokine produced from sensitized spleen cells: IL-4; format: cell-based, mouse; settings: Mus musculus, 72 h, OVA-sensitized BALB/c spleen cells, 3 days; for activity at 0.001 µM: concentration 1 nM; for activity at 0.001 µM / activity at 0.01 µM / activity at 0.1 µM: read-out: Inhibitory activity against IL-4 production; for activity at 0.01 µM: concentration 10 nM; for activity at 0.1 µM: concentration 100 nM; for activity at 0.0001 µM: concentration 0.1 nM
Method: (§1) A 7-week-old BALB/c mouse was immunized intraperitoneally with aluminum hydroxide gel (4 mg, 100 μl) having 10 μg of ovalbumin adsorbed thereon, and it was subjected to additional immunization with the same agent 14 days later. Seven days thereafter, spleen was taken out, and suspended in RPMI-1640 comprising inactivated fetal bovine serum (10%), 2-mercaptoethanol ([…]), penicillin G (100 U/ml), and streptomycin (100 μg/ml). Thus, a splenic cell suspension was prepared. Ovalbumin (0.5 mg/ml) and a test compound were added to a splenic cell suspension (5×10^6 cell/200 μl/well), and the resultant was cultured at 37° C. in the presence of 5% CO2 for 3 days. The cytokine level in the culture supernatant was quantified by ELISA. IFN-γ and IL-4 were assayed using a kit available from Amersham, and IL-5 was assayed using a kit available from Endogen.

IL-5 production = experiment: Inhibitory activity against Th2 cytokine produced from sensitized spleen cells: IL-5; format: cell-based, mouse; settings: Mus musculus, 72 h, OVA-sensitized BALB/c spleen cells, 3 days; for activity at 0.001 µM: concentration 1 nM; for activity at 0.001 µM / activity at 0.01 µM / activity at 0.1 µM: read-out: Inhibitory activity against IL-5 production; for activity at 0.01 µM: concentration 10 nM; for activity at 0.1 µM: concentration 100 nM; for activity at 0.0001 µM: concentration 0.1 nM
Method: as §1

[1] = Gastrointestinal absorption in rat (drug level in blood by HPLC); format: in vivo; settings: blood, SD male rat; for Cmax: read-out: Cmax; for Tmax: read-out: Tmax
Method: A test compound was suspended in an aqueous solution of 0.5% carboxymethylcellulose, and the resulting suspension was orally administered to an SD male rat. Blood was sampled with the elapse of time, and the level of the drug in blood was assayed by HPLC.

Balb/c male mouse = experiment: Interferon-inducing activity in mouse (in vivo), serum interferon titer after oral dosing
[2] = Solubility in citric acid/disodium phosphate buffers; settings: citric acid/disodium phosphate buffer, thermodynamic from solid
Method: 5.53% citric acid (monohydrate) and 1.75% disodium phosphate (anhydrous) were mixed together to prepare buffers (pH 2.5, 5.5, 7.4). A compound was added thereto, the mixture was stirred in a vortex mixer and subjected to ultrasonication for 30 minutes. Thereafter, the resultant was stirred in a vortex mixer again and then centrifuged at 15,000 rpm for 20 minutes. The levels of the compounds in the supernatants were then quantified by HPLC.

[3] = system: human peripheral blood mononuclear cells (PBMC); experiment: Interferon-inducing activity in human peripheral blood mononuclear cells (PBMC), IFN-α ELISA; format: cell-based; settings: 24 h;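 note: IFN-α in pg/ml with a 1.25 pg/ml detection limit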
Method: Peripheral bloods were sampled from 5 healthy volunteers using a syringe containing heparin, and peripheral blood mononuclear cells (PBMC) were prepared by density gradient centrifugation utilizing the Lymphoprep™ (NYCOMED PHARMA AS). PBMCs were washed twice in serum-free RPMI 1640 medium and adjusted at 1×10^6 cells/ml in RPMI 1640 medium comprising 10% fetal bovine serum. The product was cultured in the presence of a test compound dissolved in dimethyl sulfoxide (final concentration: 0.1%) in an incubator in the presence of 5% CO^2 at 37° C. for 24 hours. As a control, 0.1% dimethyl sulfoxide containing no test compound was used. The culture supernatant was aseptically collected by filtration. Thereafter, the supernatant was cryopreserved at −20° C. or lower until it was subjected to the assay for IFN-inducing activity. Human IFN-α in the culture supernatant was quantified using a highly sensitive ELISA system (Amersham).

[4] = dosage 0.03 mg/kg oral, serum 2 h after dosing, Balb/c mouse
[5] = dosage 0.1 mg/kg oral, serum 2 h after dosing, Balb/c mouse
[6] = dosage 0.3 mg/kg oral, serum 2 h after dosing, Balb/c mouse

| Compound | minimal effective concentration (mouse spleen cell) [µM] | activity at 0.001 µM (IL-4 production) [%] | activity at 0.01 µM (IL-4 production) [%] | activity at 0.1 µM (IL-4 production) [%] | activity at 0.001 µM (IL-5 production) [%] | activity at 0.01 µM (IL-5 production) [%] | activity at 0.1 µM (IL-5 production) [%] | activity at 0.0001 µM (IL-4 production) [%] | activity at 0.0001 µM (IL-5 production) [%] | Interferon-inducing activity (Balb/c male mouse; po, 0.03 mg/kg, 2 h) [U/ml] | Interferon-inducing activity (Balb/c male mouse; po, 0.1 mg/kg, 2 h) [U/ml] | Interferon-inducing activity (Balb/c male mouse; po, 0.3 mg/kg, 2 h) [U/ml] | solubility at 30 min ([2]; pH 2.5, aqueous buffer) [µg/mL] | solubility at 30 min ([2]; pH 5.5, aqueous buffer) [µg/mL] | solubility at 30 min ([2]; pH 7.4, aqueous buffer) [µg/mL] | further results |
| --- | --- | --- | --- | --- | --- | --- | --- | --- | --- | --- | --- | --- | --- | --- | --- | --- |
| CC(C)Cn1cnc2c(N)nc3ccccc3c21 [Comparative Example 1, Imiquimod, reference compound] | 0.3 | 18 | 1 | < 1 | 54 | 15 | 10 | – | – | – | – | – | – | – | – | Cmax ([1]; dose 3 mg/kg oral): 90 ng/mL; Tmax ([1]; dose 3 mg/kg oral): 30 min |
| CCCCOc1nc(N)c2nc(O)n(Cc3ccc(Cl)nc3)c2n1 [Example 1, 2-Butoxy-9-(6-chloro-3-pyridylmethyl)-8-hydroxyadenine] | 0.001 | 7 | 2 | < 1 | 41 | 16 | 15 | 98 | 116 | – | – | – | – | – | – | Interferon-inducing activity (Balb/c male mouse; [4]): 123 ± 87 U/ml; Interferon-inducing activity (Balb/c male mouse; [5]): 322 ± 95 U/ml; Interferon-inducing activity (Balb/c male mouse; [6]): 623 ± 32 U/ml |
| CCCCOc1nc(N)c2nc(O)n(Cc3ccc(OC)nc3)c2n1 [Example 2, 2-Butoxy-8-hydroxy-9-(6-methoxy-3-pyridylmethyl)adenine] | 0.001 | 4 | < 1 | < 1 | 37 | 14 | 12 | 96 | 98 | 388 ± 87 | 1211 ± 263 | 2559 ± 495 | – | – | – | Interferon-inducing activity (Balb/c male mouse; po, 0.01 mg/kg, 2 h): 25 ± 17 U/ml |
| CCCCNc1nc(N)c2nc(O)n(Cc3ccccn3)c2n1 [Example 20, 2-Butylamino-8-hydroxy-9-(2-pyridylmethyl)adenine] | 0.03 | 106 | 23 | 2 | 106 | 71 | 19 | – | – | – | – | – | 8810 (≈ 28100 µM) | – | – | – |
| CCCCNc1nc(N)c2nc(O)n(Cc3cccnc3)c2n1 [Example 21, 2-Butylamino-8-hydroxy-9-(3-pyridylmethyl)adenine] | 0.003 | 53 | 1 | < 1 | 97 | 23 | 15 | – | – | 15 ± 8 | 290 ± 134 | 571 ± 164 | 15000 (≈ 47900 µM) | 45 (≈ 144 µM) | 64 (≈ 204 µM) | – |
| CCCCNc1nc(N)c2nc(O)n(Cc3ccncc3)c2n1 [Example 22, 2-Butylamino-8-hydroxy-9-(4-pyridylmethyl)adenine] | 0.01 | 88 | 9 | 1 | 115 | 50 | 18 | – | – | – | 21 ± 9 | 332 ± 83 | > 80000 | 73 (≈ 233 µM) | 16 (≈ 51.1 µM) | – |
| CCCCOc1nc(N)c2nc(O)n(Cc3ccc(C)nc3)c2n1 [Example 25, 2-Butoxy-8-hydroxy-9-(6-methyl-3-pyridylmethyl)adenine] | 0.001 | 2 | < 1 | < 1 | 31 | 13 | 13 | 86 | 102 | – | – | – | > 1000 | 5 (≈ 15.2 µM) | 3 (≈ 9.14 µM) | Interferon-inducing activity (Balb/c male mouse; dosage 0.01 mg/kg oral, serum 2 h after dosing, Balb/c mouse): 65 ± 52 U/ml; Interferon-inducing activity (Balb/c male mouse; [4]): 151 ± 29 U/ml; Interferon-inducing activity (Balb/c male mouse; [5]): 753 ± 140 U/ml; Interferon-inducing activity (Balb/c male mouse; [6]): 721 ± 299 U/ml; Interferon-inducing activity (human IFN-α in culture supernatant) ([3]; concentration 0.3 nM): 7 ± 3 pg/mL; Interferon-inducing activity (human IFN-α in culture supernatant) ([3]; concentration 1 nM): 28 ± 24 pg/mL; Interferon-inducing activity (human IFN-α in culture supernatant) ([3]; concentration 3 nM): 46 ± 34 pg/mL |
| CCCCOc1nc(N)c2nc(O)n(Cc3ccc(C)nc3)c2n1 [Hydrochloride of Example 25, 2-Butoxy-8-hydroxy-9-(6-methyl-3-pyridylmethyl)adenine] | – | – | – | – | – | – | – | – | – | – | – | – | – | – | – | Cmax ([1]; dose 3 mg/kg oral): 18 ng/mL; Tmax ([1]; dose 3 mg/kg oral): 60 min; Cmax ([1]; dose 10 mg/kg oral): 150 ng/mL; Tmax ([1]; dose 10 mg/kg oral): 15 min |
| CCCCNc1nc(N)c2nc(O)n(Cc3ccccc3)c2n1 [Reference Compound 1, 9-Benzyl-2-butylamino-8-hydroxyadenine, reference compound] | 0.1 | – | 109 | 24 | – | 92 | 69 | – | – | – | 55 ± 25 | 275 ± 165 | 26 (≈ 83.2 µM) | < 1 | < 1 | – |
| CCCCOc1nc(N)c2nc(O)n(Cc3ccccc3)c2n1 [Reference Compound 2, 9-benzyl-2-butoxy-8-hydroxyadenine, reference compound] | 0.001 | 48 | 1 | < 1 | 79 | 16 | 11 | 107 | 99 | 60 ± 40 | 186 ± 42 | 317 ± 160 | 2 (≈ 6.38 µM) | < 1 | < 1 | Interferon-inducing activity (human IFN-α in culture supernatant) ([3]; concentration 1 nM): — ((−) indicates a detection limit (1.25 pg/ml) or lower); Interferon-inducing activity (human IFN-α in culture supernatant) ([3]; concentration 3 nM): 7 pg/mL; Interferon-inducing activity (human IFN-α in culture supernatant) ([3]; concentration 10 nM): 23 ± 22 pg/mL; Interferon-inducing activity (human IFN-α in culture supernatant) ([3]; concentration 30 nM): 64 ± 40 pg/mL |
